How the values were obtained:
[1] = target: T1, Protein-arginine deiminase type-4 (Homo sapiens, UniProt Q9UM07); assay: Inhibition of PAD4 by ABPP-based assay
[2] = target: T1, Protein-arginine deiminase type-4; assay: Inhibition of PAD4 measured by slope plot of Lineweaver-Burke analyses
[3] = target: T1, Protein-arginine deiminase type-4; assay: Inhibition of PAD4 measured by intercept plot of Lineweaver-Burke analyses

T1 sequence (Q9UM07 whole entry): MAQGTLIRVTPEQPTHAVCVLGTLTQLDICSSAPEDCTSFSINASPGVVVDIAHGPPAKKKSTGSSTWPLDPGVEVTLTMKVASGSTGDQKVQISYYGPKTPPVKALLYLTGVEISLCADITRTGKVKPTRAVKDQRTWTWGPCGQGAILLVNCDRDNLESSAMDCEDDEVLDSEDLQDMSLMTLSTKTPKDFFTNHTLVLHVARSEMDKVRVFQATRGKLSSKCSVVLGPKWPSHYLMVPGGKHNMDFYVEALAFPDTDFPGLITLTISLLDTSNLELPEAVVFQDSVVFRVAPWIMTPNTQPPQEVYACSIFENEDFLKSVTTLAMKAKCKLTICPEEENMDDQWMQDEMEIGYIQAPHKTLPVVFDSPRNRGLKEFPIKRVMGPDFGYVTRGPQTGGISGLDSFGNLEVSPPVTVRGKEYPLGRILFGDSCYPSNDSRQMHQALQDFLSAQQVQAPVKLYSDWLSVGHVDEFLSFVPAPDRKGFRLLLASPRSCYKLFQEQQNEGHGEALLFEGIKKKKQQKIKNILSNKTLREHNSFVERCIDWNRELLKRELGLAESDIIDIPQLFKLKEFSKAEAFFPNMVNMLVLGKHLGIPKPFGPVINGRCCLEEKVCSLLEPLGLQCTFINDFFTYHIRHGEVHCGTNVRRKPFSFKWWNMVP

Row | IC50 [1] | Ki [2] | Ki [3] | Structure (SMILES)
1 | 620 µM | 180 µM | 630 µM | CN(C)c1ccc(O)c2c1C[C@H]1CC3[C@H](N(C)C)C(O)=C(C(N)=O)C(=O)C3(O)C(O)=C1C2=O (single isomer, unassigned) [MINOCYCLINE]
2 | 8100 µM |  |  | Cn1cnc([N+](=O)[O-])c1Sc1ncnc2nc[nH]c12 [AZATHIOPRINE]
3 | > 10000 µM |  |  | CC[C@H]1OC(=O)[C@H](C)[C@@H](O[C@H]2C[C@@](C)(OC)[C@@H](O)[C@H](C)O2)[C@H](C)[C@@H](O[C@@H]2O[C@H](C)C[C@H](N(C)C)[C@H]2O)[C@](C)(O)C[C@@H](C)CN(C)[C@H](C)[C@@H](O)[C@]1(C)O [AZITHROMYCIN]
4 | 2400 µM |  |  | Cc1oncc1C(=O)Nc1ccc(C(F)(F)F)cc1 [LEFLUNOMIDE]
5 | > 10000 µM |  |  | CN(Cc1cnc2nc(N)nc(N)c2n1)c1ccc(C(=O)N[C@@H](CCC(=O)O)C(=O)O)cc1 [METHOTREXATE]

Row | Structure (SMILES) | IC50 [1] | Ki [2] | Ki [3]
6 | Cc1cc(NS(=O)(=O)c2ccc(N)cc2)no1 [SULFAMETHOXAZOLE] | > 10000 µM |  | 
7 | CN(C)[C@@H]1C(O)=C(C(N)=O)C(=O)[C@@]2(O)C(O)=C3C(=O)c4c(O)cccc4[C@@](C)(O)[C@H]3C[C@@H]12 [TETRACYCLINE] | 780 µM |  | 
